Reference: patent US20230312587A1, “PTERIDINONE COMPOUNDS AND USES THEREOF” (Vertex Pharmaceutical Incorporated, priority 2018, published 2023)
Like-named read-outs stand apart in the source and are kept apart here.

Tests used:
Colo-205 cells = assay: Calcium flux assay (FLIPR Calcium 5); assay type: cell-based; conditions: FLIPR Calcium 5, measured over 36 minutes
Method: Compounds described herein induced ER stress by causing intracellular calcium flux. Calcium flux was measured in Colo-205 cells using the FLTPR® Calcium 5 Assay Kit according to manufacter's protocol (Molecular Devices, Cat. #R8186) on a FLIPR3 system (Molecular Devices). Calcium flux is measured over 36 minutes. The Colo-205 calcium flux assay data are summarized in Table 47: A<0.6 μM; 0.6 μM≤B<2.0 μM; 2.0 μM≤C<10.0 μM; D≥10.0 μM.

[1] = test system: Colo205-TCF/LEF-Luciferase (Luc) tumor; assay: In vivo inhibition of TCF/LEF reporter activity in Colo-205 tumors; design: concentration or dose not given beside the values; conditions: TCF/LEF luciferase reporter in Colo-205 tumors, nu/nu mice, oral gavage
Outline: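 Female nu/nu mice carried subcutaneous Colo205-TCF/LEF-luciferase tumours (200–500 mm^3), n=4 per group. Compound was given by oral gavage in 1:3:5:1 EtOH:DMSO:PEG-400:H2O at 10 ml/kg, with vehicle as control. Luciferase activity in tumour lysates (Steady-Glo) was normalised to BCA protein.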

HepG2 WFS1 KO = assay: In vitro cell viability (CellTiter-Glo), HepG2 WFS1 KO; assay type: cell-based; conditions: HepG2 WFS1 knockout, 96 hours, read-out: HepG2 WFS1 KO viability
Source text: A double cleavage strategy was employed to remove large fragments from the WFS1 locus. Suitable target sites in WFS1 exon 8 were first selected using CRISPR design software to rank suitable target sites and computationally predict off-target sites for each intended target. Six top guide RNA sequences are identified and screened for activity using the Surveyor Mutation Detection Kit (Integrated DNA Technologies). Then, the best 2 guide RNAs were cloned into GeneArt OFP CRISPR nuclease vectors (Thermofisher, Cat #A21174) separately and co-transfected into HepG2 cells using nucleofection (4D Nucleofector X, Lonza). Cells were sorted by FACS 48 hrs later to enrich for the OFP positive cell population. The OFP positive cell population were plated into 96-well plates at 0.5-5 cells/well to isolate clonal cell lines. After allowing cells to expand for 2-3 weeks, plates were inspected for presence of colonies. When colonies became more than 70% confluent, they were dissociated with trypsin and were further expanded. Cell clones with homozygous double cleavage of WFS1 exon 8 were detected with PCR and confirmed with DNA sequencing.
HEK293 cells containing empty pCLPCx vector (HEK293 empty), HEK293 cells stably over-expression WFS1 (HEK293 WFS1), HepG2, and HepG2 cells where WFS1 was depleted via CRISPR/Cas9 (HepG2 WFS1 KO) cells were plated into 96-well black plates (Corning, product #3904) in 100 microliters of complete DMEM cell culture media [DMEM (Life Technologies, product #11960-051) media supplemented with 10% FBS (Hyclone, catalog #SH30071.03), antimycotic/antibiotic (Life Technologies, product #15240-062), and Glutamax (Life Technologies, product #35050-061)] at 1,000 (HEK293) or 5,000 (HepG2) cells per well. Cells were allowed to attach and grow overnight, after which compounds are added at various concentrations. Cell viability was assessed 96 hrs after compound addition with CellTiter-Glo reagent (Promega, catalog #G7570) according to manufacturer's protocol and measurement on a Pherastar luminescence plate reader (BMG Labtech).
To determine the effect of WFS1 depletion on compound mediated inhibition of cell viability, parental HepG2 cells and HepG2 cells where WFS1 was deleted by CRISPR/Cas9 were exposed to increasing concentrations of either Compound 136 or Compound 253 for 96 hours after which time viability was determined using Cell Titer Glo reagent (Promega). […] The IC50s for the viability of both the HepG2 parental and WFS1 knockout cells are summarized in Table 47: A<0.5 μM; 0.5 μM≤<2.0 μM; 2.0 μM≤C<10.0 μM; D≥[…].

EC50 (Colo-205 cells; Homo sapiens, COLO 205, 0.6 h) [µM]	IC50 (HepG2 WFS1 KO; Homo sapiens) [µM]	Compound	Percent Remaining Activity at 8 hrs after Dosing [1] [%]	EC50 (Colo-205 cells) [µM]	IC50 (HepG2 WFS1 KO) [µM]
2 to 10	≥ 10	Cc1nc(NCc2cnn(Cc3ccc(C(F)(F)F)nc3[C@@H](C)O)c2)nc2c1NC(=O)[C@H](C)N2C (single isomer, unassigned) [Compound 420]	28		
< 0.6	≥ 10	Cc1nc(NCc2cnn(Cc3ccc(F)cc3)c2)nc2c1N(C)C(=O)[C@H](C)N2C [Compound 1, (7S)-2-(((1-(4-fluorobenzyl)-1H-pyrazol-4-yl)methyl)amino)-4,5,7,8-tetramethyl-7,8-dihydropteridin-6(5H)-one]	32		
2 to 10	≥ 10	Cc1nc(NCc2cnn(CCc3ccc(F)cc3)c2)nc2c1N(C)C(=O)[C@H](C)N2C [Compound 8, (7S)-2-(((1-(4-fluorophenethyl)-1H-pyrazol-4-yl)methyl)amino)-4,5,7,8-tetramethyl-7,8-dihydropteridin-6(5H)-one]			
0.6 to 2	≥ 10	CC[C@H]1C(=O)Nc2cnc(NCc3cnn(Cc4ccc(F)cc4)c3)nc2N1C [Compound 9, (7S)-7-ethyl-2-(((1-(4-fluorobenzyl)-1H-pyrazol-4-yl)methyl)amino)-8-methyl-7,8-dihydropteridin-6(5H)-one]			
< 0.6	≥ 10	Cc1nc(NCc2cnn(C[C@H](C)c3ccc(F)cc3)c2)nc2c1NC(=O)[C@H](C)N2C [Compound 96, (7S)-2-(((1-((R)-2-(4-fluorophenyl)propyl)-1H-pyrazol-4-yl)methyl)amino)-4,7,8-trimethyl-7,8-dihydropteridin-6(5H)-one]			
2 to 10	≥ 10	Cc1nc(NCc2cnn(CCC3CCOCC3)c2)nc2c1NC(=O)[C@H](C)N2C [Compound 115, (7S)-4,7,8-trimethyl-2-(((1-(2-(tetrahydro-2H-pyran-4-yl)ethyl)-1H-pyrazol-4-yl)methyl)amino)-7,8-dihydropteridin-6(5H)-one]			
0.6 to 2	≥ 10	CCOc1ccc(CCn2cc(CNc3ncc4c(n3)N(C)[C@@H](C)C(=O)N4)cn2)cc1 [Compound 121, (7S)-2-(((1-(4-ethoxyphenethyl)-1H-pyrazol-4-yl)methyl)amino)-7,8-dimethyl-7,8-dihydropteridin-6(5H)-one]			
2 to 10	≥ 10	Cc1nc(NCc2cnn(C3CCN(C(=O)c4ccc(F)cc4)CC3)c2)nc2c1NC(=O)[C@H](C)N2C [Compound 125, (7S)-2-(((1-(1-(4-Fluorobenzoyl)piperidin-4-yl)-1H-pyrazol-4-yl)methyl)amino)-4,7,8-trimethyl-7,8-dihydropteridin-6(5H)-one]			
2 to 10	≥ 10	Cc1nc(NCc2cnn(CC(C)(O)c3ccc(F)cc3)c2)nc2c1NC(=O)[C@H](C)N2C (stereo partly drawn) [Compound 128, (7S)-2-(((1-(2-(4-fluorophenyl)-2-hydroxypropyl)-1H-pyrazol-4-yl)methyl)amino)-4,7,8-trimethyl-7,8-dihydropteridin-6(5H)-one]			
2 to 10	≥ 10	Cc1nn(C)cc1Cn1cc(CNc2nc(C)c3c(n2)N(C)[C@@H](C)C(=O)N3)cn1 [Compound 139, (7S)-2-(((1-((1,3-dimethyl-1H-pyrazol-4-yl)methyl)-1H-pyrazol-4-yl)methyl)amino)-4,7,8-trimethyl-7,8-dihydropteridin-6(5H)-one]			
2 to 10	≥ 10	Cc1ncc(Cn2cc(CNc3nc(C)c4c(n3)N(C)[C@@H](C)C(=O)N4)cn2)cn1 [Compound 163, (7S)-4,7,8-trimethyl-2-(((1-((2-methylpyrimidin-5-yl)methyl)-1H-pyrazol-4-yl)methyl)amino)-7,8-dihydropteridin-6(5H)-one]			
2 to 10	≥ 10	Cc1cnc(C(F)(F)F)nc1-n1cc(CNc2ncc3c(n2)N(C)[C@@H](C)C(=O)N3)cn1 [Compound 164, (7S)-7,8-dimethyl-2-(((1-(5-methyl-2-(trifluoromethyl)pyrimidin-4-yl)-1H-pyrazol-4-yl)methyl)amino)-7,8-dihydropteridin-6(5H)-one]			
2 to 10	≥ 10	Cc1nc(NCc2cnn(Cc3ccc(F)cc3)c2)nc2c1NC(=O)C1(CC1)N2 [Compound 222, 2′-(((1-(4-fluorobenzyl)-1H-pyrazol-4-yl)methyl)amino)-4′-methyl-5′,8′-dihydro-6′H-spiro[cyclopropane-1,7′-pteridin]-6′-one]			
2 to 10	≥ 10	Cc1nc(N[C@H]2C[C@@H](Oc3cc(F)c(F)c(F)c3)C2)nc2c1NC(=O)[C@H](C)N2C [Compound 247, (7S)-4,7,8-trimethyl-2-((cis-3-(3,4,5-trifluorophenoxy)cyclobutyl)amino)-7,8-dihydropteridin-6(5H)-one]			
0.6 to 2	≥ 10	Cc1nc(NCc2cn(Cc3ccc(C(F)(F)F)nc3)nc2Br)nc2c1NC(=O)[C@H](C)N2C [Compound 412, (S)-2-(((3-bromo-1-((6-(trifluoromethyl)pyridin-3-yl)methyl)-1H-pyrazol-4-yl)methyl)amino)-4,7,8-trimethyl-7,8-dihydropteridin-6(5H)-one]			
0.6 to 2	≥ 10	Cc1nc(NCc2cnn(Cc3cncc(F)c3)c2)nc2c1NC(=O)[C@H](C(C)C)N2C [Compound 415, (7S)-2-(((1-((5-fluoropyridin-3-yl)methyl)-1H-pyrazol-4-yl)methyl)amino)-7-isopropyl-4,8-dimethyl-7,8-dihydropteridin-6(5H)-one]			
< 0.6	≥ 10	Cc1nc(NCc2cnn(Cc3ccc(C(F)(F)F)nc3Cl)c2)nc2c1NC(=O)[C@H](C)N2C [Compound 418, (7S)-2-(((1-((2-chloro-6-(trifluoromethyl)pyridin-3-yl)methyl)-1H-pyrazol-4-yl)methyl)amino)-4,7,8-trimethyl-7,8-dihydropteridin-6(5H)-one]			
2 to 10	≥ 10	Cc1nc(NCc2cnn(Cc3ccc(C(F)(F)F)nc3C(C)O)c2)nc2c1NC(=O)[C@H](C)N2C (stereo partly drawn) [Compound 419, (7S)-2-(((1-((2-((S)-1-hydroxyethyl)-6-(trifluoromethyl)pyridin-3-yl)methyl)-1H-pyrazol-4-yl)methyl)amino)-4,7,8-trimethyl-7,8-dihydropteridin-6(5H)-one]			
0.6 to 2	≥ 10	Cc1nc(NCc2cnn(Cc3cnc(Cl)c(F)c3)c2)nc2c1NC(=O)[C@H](C(C)C)N2C [Compound 424, (7S)-2-(((1-((6-chloro-5-fluoropyridin-3-yl)methyl)-1H-pyrazol-4-yl)methyl)amino)-7-isopropyl-4,8-dimethyl-7,8-dihydropteridin-6(5H)-one]			
0.6 to 2	≥ 10	CC[C@H]1C(=O)Nc2cnc(NCc3cnn(Cc4ccc(C(F)(F)F)nc4)c3)nc2N1C [Compound 427, (7S)-7-ethyl-8-methyl-2-(((1-((6-(trifluoromethyl)pyridin-3-yl)methyl)-1H-pyrazol-4-yl)methyl)amino)-7,8-dihydropteridin-6(5H)-one]			
≥ 10	≥ 10	Cc1nc(NCc2cn(Cc3ccc(C(F)(F)F)nc3)cn2)nc2c1NC(=O)[C@H](C)N2C [Compound 428, (S)-4,7,8-trimethyl-2-(((1-((6-(trifluoromethyl)pyridin-3-yl)methyl)-1H-imidazol-4-yl)methyl)amino)-7,8-dihydropteridin-6(5H)-one]			
		(7S)-2-(((1-((6-fluoro-2-isopropylpyridin-3-yl)methyl)-1H-pyrazol-4-yl)methyl)(methyl)amino)-7-isopropyl-4,8-dimethyl-7,8-dihydropteridin-6(5H)-one [Compound 430]		0.6 to 2	≥ 10
